Tested on: β-amyloid production by 7W WT APP751 CHO cells
Assay: Screening of NF-kB activation inhibitors, Aβ1-40 and Aβ1-42 ELISA (Example 3)
Assay type: cell-based, Chinese hamster
Details: 24 hours (FIG. 6)
Procedure: Most of the compounds screened can be obtained as Calbiochem products from EMD Biosciences, Inc., La Jolla, Calif. R—and S-Niguldipine are available e.g., from Tocris Cookson Inc., Ellisville, Mo. CAPE and Artemisinin are available, e.g., as a Sigma product from Sigma-Aldrich Corp., St. Louis, Mo.
Each compound was dissolved in DMSO. 7W WT APP751 CHO cells overexpressing APP751 were plated into 96-well culture plates in 200 μL of culture medium. Each compound from the library was added to confluent cells to a final concentration of 500 nM, 1 μM, 5 μM, 10 μM and/or 30 μM. After 24 hours of treatment, culture medium was collected and dissolved 10-fold and 2-fold for measuring the level of Aβ1-40 and Aβ1-42, respectively. Aβ1-40 and Aβ1-42 were determined using commercially available ELISAs (Biosource, CA), following the recommendations of the manufacturer.

COC(=O)C1=C(C)NC(C)=C(C(=O)OCCCN2CCC(c3ccccc3)(c3ccccc3)CC2)[C@H]1c1cccc([N+](=O)[O-])c1.Cl [(S)-(+)-niguldipine]
significantly decreased: concentration of Aβ1-40 compared to controls (1 μM) | concentration of Aβ1-42 compared to controls (1 μM) | concentration of total β-amyloid compared to controls (1 μM) | concentration of Aβ1-40 compared to controls (5 μM) | concentration of Aβ1-42 compared to controls (5 μM) | concentration of total β-amyloid compared to controls (5 μM) | concentration of Aβ1-40 compared to controls (30 μM) | concentration of Aβ1-42 compared to controls (30 μM) | concentration of total β-amyloid compared to controls (30 μM)

CC1=C(O)C(=O)C=C2C1=CC=C1[C@@]2(C)CC[C@@]2(C)[C@@H]3C[C@](C)(C(=O)O)CC[C@]3(C)CC[C@]12C [celastrol]
significantly decreased: concentration of Aβ1-40 compared to controls (500 nM) | concentration of Aβ1-42 compared to controls (500 nM) | concentration of total β-amyloid compared to controls (500 nM) | concentration of Aβ1-40 compared to controls (5 μM) | concentration of Aβ1-42 compared to controls (5 μM) | concentration of total β-amyloid compared to controls (5 μM)

COC(=O)C1=C(C)NC(C)=C(C(=O)OCCCN2CCC(c3ccccc3)(c3ccccc3)CC2)[C@@H]1c1cccc([N+](=O)[O-])c1.Cl [R-niguldipine]
significantly decreased: concentration of Aβ1-40 compared to controls (1 μM) | concentration of Aβ1-42 compared to controls (1 μM) | concentration of total β-amyloid compared to controls (1 μM) | concentration of Aβ1-40 compared to controls (5 μM) | concentration of Aβ1-42 compared to controls (5 μM) | concentration of total β-amyloid compared to controls (5 μM) | concentration of Aβ1-40 compared to controls (30 μM) | concentration of Aβ1-42 compared to controls (30 μM) | concentration of total β-amyloid compared to controls (30 μM)

C=C1C(=O)[C@@]23[C@H](O)C[C@@H]4C(C)(C)CC[C@H](O)[C@@]4(CO)[C@@H]2CC[C@@H]1[C@H]3O [kamebakaurin]
significantly decreased: concentration of Aβ1-40 compared to controls (10 μM) | concentration of Aβ1-42 compared to controls (10 μM) | concentration of total β-amyloid compared to controls (10 μM) | concentration of Aβ1-40 compared to controls (30 μM) | concentration of Aβ1-42 compared to controls (30 μM) | concentration of total β-amyloid compared to controls (30 μM)

Nc1ccc2ncnc(NCCc3ccc(Oc4ccccc4)cc3)c2c1 [6-amino-4-(4-phenoxyphenylethylamino)quinazoline]
significantly decreased: concentration of Aβ1-40 compared to controls (500 nM) | concentration of Aβ1-42 compared to controls (500 nM) | concentration of total β-amyloid compared to controls (500 nM) | concentration of Aβ1-40 compared to controls (5 μM) | concentration of Aβ1-42 compared to controls (5 μM) | concentration of total β-amyloid compared to controls (5 μM)

C=C1C(=O)O[C@@H]2C[C@@]3(C)CCCC(=C)[C@@H]3C[C@H]12 [isohelenin]
significantly decreased: concentration of Aβ1-40 compared to controls (5 μM) | concentration of Aβ1-42 compared to controls (5 μM) | concentration of total β-amyloid compared to controls (5 μM) | concentration of Aβ1-40 compared to controls (10 μM) | concentration of Aβ1-42 compared to controls (10 μM) | concentration of total β-amyloid compared to controls (10 μM)

NC(=O)Nc1sc(-c2ccc(F)cc2)cc1C(N)=O [IKK-2 Inhibitor IV]
significantly decreased: concentration of Aβ1-40 compared to controls (500 nM) | concentration of Aβ1-42 compared to controls (500 nM) | concentration of total β-amyloid compared to controls (500 nM) | concentration of Aβ1-40 compared to controls (5 μM) | concentration of Aβ1-42 compared to controls (5 μM) | concentration of total β-amyloid compared to controls (5 μM)

Source: patent US20060188938A1, “Compounds for inhibiting beta-amyloid production and methods of identifying the compounds” (priority 2005, published 2006)
